Series [1] has as its system serum peptidase. Put plainly: Degradation of peptide in 10% fresh mouse serum (HPLC of remaining peptide). To be noted: for digestion resistance to serum peptidases (in words): up to 16 hr (FIG. 21).
Experimental: (§1) Peptide was digested in TBS containing 10% fresh mouse serum or fresh human serum. After incubation at 37° C. for a given time, 1% trifluoro acid was added to remove various serum proteins by precipitation. After short centrifugation, the soluble fraction was analyzed by reversed-phase HPLC using a C18 analysis column. To normalize variation in the total amount of the peptide loaded for each HPLC, the peak of non-protein components contained in the serum, which is absorbed at the wavelength of 220 nm, was used as an internal control. The peak area of undigested peptides was quantitatively monitored by Chromatopac C-R8A (Shimadzu Corp., Kyoto, Japan), and the amount of the remaining peptide was calculated.
(§2) Therefore, the inventor examined the digestion resistance of peptide in vitro in a 10% fresh mouse serum. The amount of a remaining undigested peptide was quantified by HPLC.
Series [2] has as its system serum peptidase.
Experimental: as §1, §2
Series [3] has as its system DO11.10 cells. Put plainly: Antigen presentation by F2-IA^d vascular endothelial cells (CD69 expression by DO11.10 cells). It is filed as cell-based, mouse. The method, then:
EL4 cells were first opsonized with RGD peptide. Next, 5 mg/ml OVA protein was loaded on the cytoplasm by osmotic pressure loading. After sufficient washing, 2×10^6 EL4 cells were added to a confluent culture medium of F2-IA^d cells on a 24-well plate (cultured for 2 days in advance in the presence of 500 U/ml rmIFN-γ). As a control, EL4 and EG7 mock-loaded with PBS were RGD-modified in the same manner and used. EL4 and other target cells were added to F2-IA^d, and the cell mixture was cultured for 24 hr. As for the control well wherein F2-IA^d cells were directly loaded with OVAII peptide, the cells were pulsed with peptide for 2 hr at the end of the culture. After removing the non-adherent cells and debris of dead cells, the surface of the adhered F2-IA^d cells was sufficiently washed. In an antigen presentation inhibitory experiment using chloroquine, 100 μM chloroquine was added 30 min before addition of EL4, EL4 loaded with OVA or 0.25 mg/ml OVA protein. Furthermore, F2-IA^d cells were cultured for 3 days in the continuous presence of chloroquine.
Whether the F2-IA^d cells presented the target antigen polypeptide on the cell surface was evaluated by monitoring the expression of CD69 by DO11.10 cells. The antigen-presenting F2-IA^d cells and DO11.10 cells were mixed and centrifuged to contact the cells with one another. After 6 hr and 24 hr, the cells were stained with biotin-labeled anti CD69 mAb (H1.2F3, BD Biosciences), and the expression of CD69 by DO11.10 cells was detected by flow cytometry (stained positive with FITC-labeled KJ1.26 (anti clonotypic TCR mAb)).

Series [4] deals with DO11.10 cells. Put plainly: Growth of CD4 T cells: proliferation of DO11.10 cells by OVII modified peptides (3H-thymidine). It counts as cell-based, mouse. To be noted: for sensitization activity compared to OVII+ (in words): effect of lysine, FIG. 20.
Series [5] is described as follows: TBS containing 10% fresh mouse serum. The conditions noted are these: 37° C., up to 16 hr.
Series [6] has as its system EG7 tumor. Put plainly: Antitumor activity by in vivo immunization with OVA-derived peptides (EL4 / EG7 tumor). To be noted: CBF1 mouse, peptide-loaded LPS blast i.p. 3 times; EL4 / EG7 tumor (FIG. 8). The source says: CBF1 mouse was immunized with LPS blast of splenocyte pulsed with either λ repressor peptide ([…]; SEQ ID NO: 39) or OVAII peptide as a Th epitope peptide, and K^b-binding OVA-I peptide, which is a CTL inducing peptide. LPS blast derived from one spleen was pulsed with peptide, and intraperitoneally injected to immunize two mice. The next day of the third immunization, 9×10^6 EL4 cells and 1.2×10^7 EG7 cells were intradermally transplanted in a pair on the back skin of the mice. The tumor size was measured every other day. Immunization was performed once again 2 weeks from the tumor transplantation.
To verify the anti-tumor effect of inducing tumor-specific Th cells in vivo, the inventor compared the immunization protocol that induces 1. CTL alone, 2. CTL and a third party antigen-specific Th cell, and 3. CTL and tumor-specific Th cell. As the antigen presenting cell, LPS blast of spleen cell was used, and the APC loaded with each peptide alone or the mixture of each peptide was injected intraperitoneally 3 times (once per week). On the day of third immunization, 9×10^6 EL4 and 1.2×10^7 EG7 tumor were innoculated on the opposite sides of the back, and the tumor diameter was measured from day 4.

Entries after “also recorded” stand apart in the source; their conditions may differ. Where two headings read alike, the source gives them in different places. Where a SMILES comes first, the peptide text is derived from it. Where no end group is shown, it is not given here. [ ]: non-standard residue; d: D form. The star is where a group is joined. Biotin = O=C1N[C@H]2[C@H](CS[C@H]2CCCCC(=O)*)N1; βAla = NCCC(=O)O

Regarding `CC[C@H](C)[C@H](N)C(=O)N[C@@H](CO)C(=O)N[C@@H](CCC(N)=O)C(=O)N[C@@H](C)C(=O)N[C@H](C(=O)N[C@@H](Cc1c[nH]cn1)C(=O)N[C@@H](C)C(=O)N[C@@H](C)C(=O)N[C@@H](Cc1c[nH]cn1)C(=O)N[C@@H](C)C(=O)N[C@@H](CCC(=O)O)C(=O)N[C@H](C(=O)N[C@@H](CC(N)=O)C(=O)N[C@@H](CCC(=O)O)C(=O)N[C@@H](C)C(=O)N1CCC[C@H]1C(=O)NCCC(=O)O)[C@@H](C)CC)C(C)C` [OVIIPβ] (HELM PEPTIDE1{I.S.Q.A.V.H.A.A.H.A.E.I.N.E.A.P.[bAla]}$$$$V2.0; N-terminus and C-terminus assumed), the “digestion resistance to serum peptidases (in words)” value (“digestion resistance” for short) in series [1] (10% fresh mouse serum) was “the protection effect was further enhanced, and the amount of the peptide remaining 16 hr later increased”.

For `CC[C@H](C)[C@H](N)C(=O)N[C@@H](CO)C(=O)N[C@@H](CCC(N)=O)C(=O)N[C@@H](C)C(=O)N[C@H](C(=O)N[C@@H](Cc1c[nH]cn1)C(=O)N[C@@H](C)C(=O)N[C@@H](C)C(=O)N[C@@H](Cc1c[nH]cn1)C(=O)N[C@@H](C)C(=O)N[C@@H](CCC(=O)O)C(=O)N[C@H](C(=O)N[C@@H](CC(N)=O)C(=O)N[C@@H](CCC(=O)O)C(=O)N[C@@H](C)C(=O)NCC(=O)NCCC(=O)O)[C@@H](C)CC)C(C)C` [OVIIβ] (HELM PEPTIDE1{I.S.Q.A.V.H.A.A.H.A.E.I.N.E.A.G.[bAla]}$$$$V2.0; N-terminus and C-terminus assumed), in series [2], the “protection of peptide from digestion” value is listed as “protects about half of the peptide”.

Turning to `CC[C@H](C)[C@H](NC(=O)[C@H](CCC(=O)O)NC(=O)[C@H](C)NC(=O)[C@H](Cc1c[nH]cn1)NC(=O)[C@H](C)NC(=O)[C@H](C)NC(=O)[C@H](Cc1c[nH]cn1)NC(=O)[C@@H](NC(=O)[C@H](C)NC(=O)[C@H](CCC(N)=O)NC(=O)[C@H](CO)NC(=O)[C@@H](NC(=O)[C@H](CO)NC(=O)[C@@H]1CCCN1)[C@@H](C)CC)C(C)C)C(=O)N[C@@H](CC(N)=O)C(=O)N[C@@H](CCC(=O)O)C(=O)N[C@@H](C)C(=O)N1CCC[C@H]1C(=O)NCCC(=O)O` [POVIIPβ], the “digestion resistance” value in series [1] (10% fresh mouse serum) is “further additional protective effect”.

In the case of `CC[C@H](C)[C@H](NC(=O)[C@H](CCC(=O)O)NC(=O)[C@H](C)NC(=O)[C@H](Cc1c[nH]cn1)NC(=O)[C@H](C)NC(=O)[C@H](C)NC(=O)[C@H](Cc1c[nH]cn1)NC(=O)[C@@H](NC(=O)[C@H](C)NC(=O)[C@H](CCC(N)=O)NC(=O)[C@H](CO)NC(=O)[C@@H](NC(=O)[C@H](CCCCNC(=O)CCCC[C@@H]1SC[C@@H]2NC(=O)N[C@@H]21)NC(=O)[C@H](CO)NC(=O)[C@@H]1CCCN1)[C@@H](C)CC)C(C)C)C(=O)N[C@@H](CC(N)=O)C(=O)N[C@@H](CCC(=O)O)C(=O)N[C@@H](C)C(=O)N[C@@H](CCCCNC(=O)CCCC[C@@H]1SC[C@@H]2NC(=O)N[C@@H]21)C(=O)N1CCC[C@H]1C(=O)NCCC(=O)O` [PbOVIIbPβ] (H-PSK(Biotin)ISQAVHAAHAEINEAK(Biotin)P[βAla]-OH; N-terminus and C-terminus assumed), in series [1] (mouse, serum), the “level of epitope remaining in the serum compared with POVIIPβ” value is “almost the same for both peptides”.

`CC[C@H](C)[C@H](NC(=O)[C@H](CCC(=O)O)NC(=O)[C@H](C)NC(=O)[C@H](Cc1c[nH]cn1)NC(=O)[C@H](C)NC(=O)[C@H](C)NC(=O)[C@H](Cc1c[nH]cn1)NC(=O)[C@@H](NC(=O)[C@H](C)NC(=O)[C@H](CCC(N)=O)NC(=O)[C@H](CO)NC(=O)[C@@H](NC(=O)[C@H](CCCCNC(=O)CCCC[C@@H]1SC[C@@H]2NC(=O)N[C@@H]21)NC(=O)[C@@H](N)CO)[C@@H](C)CC)C(C)C)C(=O)N[C@@H](CC(N)=O)C(=O)N[C@@H](CCC(=O)O)C(=O)N[C@@H](C)C(=O)N[C@@H](CCCNC(=N)N)C(=O)O` [bOVII+] (H-SK(Biotin)ISQAVHAAHAEINEAR-OH; N-terminus and C-terminus assumed): the “digestion resistance” value in series [2] is listed as “no digestion resistance”.

In the case of `CCN(CC)CCCC(C)Nc1ccnc2cc(Cl)ccc12` (stereo not shown) [chloroquine], in series [3] (100 μM chloroquine (FIG. 4)), the “antigen presentation of OVA-loaded EL4 by F2-IA^d cells” value is “sensitive to chloroquine”. For the same compound, the “presentation of OVA protein by F2-IA^d cells” value in series [3] (100 μM chloroquine (FIGS. 3, 4)) was “decreased”.

Ac-ISQAVHAAHAEINEA [ac-OVII]: the “digestion resistance” value in series [2] is “higher protection effect than the above-mentioned single modification of the C terminal side”. For the same compound, the “sensitization activity / Th inducing activity (in words)” value in series [4] (10% FCS-DMEM, compared to OVII (FIG. 11)) is on record as “almost no influence on the sensitization activity; also recorded: no difference from OVII”.

Turning to “HELM PEPTIDE1{I.S.Q.A.V.H.A.A.H.A.E.I.N.E.A.P.[bAla]}$$$$V2.0 (N-terminus and C-terminus assumed; SMILES CC[C@H](C)[C@H](N)C(=O)N[C@@H](CO)C(=O)N[C@@H](CCC(N)=O)C(=O)N[C@@H](C)C(=O)N[C@H](C(=O)N[C@@H](Cc1c[nH]cn1)C(=O)N[C@@H](C)C(=O)N[C@@H](C)C(=O)N[C@@H](Cc1c[nH]cn1)C(=O)N[C@@H](C)C(=O)N[C@@H](CCC(=O)O)C(=O)N[C@H](C(=O)N[C@@H](CC(N)=O)C(=O)N[C@@H](CCC(=O)O)C(=O)N[C@@H](C)C(=O)N1CCC[C@H]1C(=O)NCCC(=O)O)[C@@H](C)CC)C(C)C)”, the cleaved bond result in series [5] is recorded as “Ile-S, major”.

Take ISQAVHAAHAEINEAPA: the cleaved bond entry in series [5] was “Ile-S, major”.

Turning to ISQAVHAAHAEINEAPA [OVIIPA], in series [1] (10% fresh mouse serum, within 4 hr), the “protection of peptide from digestion” value is on record as “protects about half of the peptide”.

Regarding “LEDARRLKAIYEKKK [X peptide, third party antigen peptide]”, the “tumor control, Th peptide together with OVA-I” value in series [6] is “could delay tumor growth as compared to CTL single induction, but the mouse finally died”.

For “OVA-I: K^b-binding OVA-I peptide, which is a CTL inducing peptide (SIINFEKL; UniProt P01012 258-265, looked up, fragment)”, the “tumor control, CTL-inducing peptide alone” value in series [6] is given as “tumor control was only possible to a limited degree”.

For the compound PSK^bioISQAVHAAHAEINEARK^bioPβA, the fragment found result in series [5] is “product which has lost the biotin molecule on the N terminal side, major”.

On to SKISQAVHAAHAEINEAR [KOVII+], for which, in series [4], the “sensitization activity compared to OVII+ (in words)” value was “no difference in the sensitization activity compared to OVII+”.

Turning to SKISQAVHAAHAEINEARK [KOVII+K], the “sensitization activity compared to OVII+ (in words)” value in series [4] is given as “no difference in the sensitization activity compared to OVII+”.

Regarding SKISQAVHAAHAEINEARK^bioG, in series [5], the cleaved bond result was “Ser-K, major” and the fragment found entry is “product missing one biotin”.

With “SK^bioISQAVHAAHAEINEAR (H-SK(Biotin)ISQAVHAAHAEINEAR-OH; N-terminus and C-terminus assumed; SMILES CC[C@H](C)[C@H](NC(=O)[C@H](CCC(=O)O)NC(=O)[C@H](C)NC(=O)[C@H](Cc1c[nH]cn1)NC(=O)[C@H](C)NC(=O)[C@H](C)NC(=O)[C@H](Cc1c[nH]cn1)NC(=O)[C@@H](NC(=O)[C@H](C)NC(=O)[C@H](CCC(N)=O)NC(=O)[C@H](CO)NC(=O)[C@@H](NC(=O)[C@H](CCCCNC(=O)CCCC[C@@H]1SC[C@@H]2NC(=O)N[C@@H]21)NC(=O)[C@@H](N)CO)[C@@H](C)CC)C(C)C)C(=O)N[C@@H](CC(N)=O)C(=O)N[C@@H](CCC(=O)O)C(=O)N[C@@H](C)C(=O)N[C@@H](CCCNC(=N)N)C(=O)O)”, in series [5], the cleaved bond entry is “A-Arg, major” and the fragment found entry was “product missing one biotin”.

For the compound SK^bioISQAVHAAHAEINEARK^bio, in series [5], the cleaved bond result is listed as “A-R, major” and the fragment found result is on record as “product missing one biotin”.

For “SK^bioISQAVHAAHAEINEARK^bio (SK(Biotin)ISQAVHAAHAEINEARK(Biotin)) [bOVII+b]”, the “activity to induce proliferation of DO11.10 Th cell relative to KOVII+ and KOVII+K, respectively” value in series [4] (bOVII+ vs KOVII+, bOVII+b vs KOVII+K (FIG. 20)) was “about 10 fold”. The “increase in sensitization activity compared to OVIIβ, OVIIPA” value in series [4] (relative to peptides with Pro at second position from C terminal and/or β-Ala at C terminal (OVIIβ, OVIIPA, FIG. 11)) was determined as 100 fold.

The record behind these values is US20140341939A1 (NATIONAL UNIVERSITY CORPORATION KOCHI UNIVERSITY, priority 2011, published 2014).
